For four compounds, IC50 results are on record in ChEMBL document CHEMBL1145419, “Structural insight into the pharmacophore pocket of human glutamate carboxypeptidase II” (J Med Chem, 2007).

In this test the target is Glutamate carboxypeptidase 2 (Homo sapiens, UniProt Q04609).
Glutamate carboxypeptidase 2, sequence (Q04609 whole entry): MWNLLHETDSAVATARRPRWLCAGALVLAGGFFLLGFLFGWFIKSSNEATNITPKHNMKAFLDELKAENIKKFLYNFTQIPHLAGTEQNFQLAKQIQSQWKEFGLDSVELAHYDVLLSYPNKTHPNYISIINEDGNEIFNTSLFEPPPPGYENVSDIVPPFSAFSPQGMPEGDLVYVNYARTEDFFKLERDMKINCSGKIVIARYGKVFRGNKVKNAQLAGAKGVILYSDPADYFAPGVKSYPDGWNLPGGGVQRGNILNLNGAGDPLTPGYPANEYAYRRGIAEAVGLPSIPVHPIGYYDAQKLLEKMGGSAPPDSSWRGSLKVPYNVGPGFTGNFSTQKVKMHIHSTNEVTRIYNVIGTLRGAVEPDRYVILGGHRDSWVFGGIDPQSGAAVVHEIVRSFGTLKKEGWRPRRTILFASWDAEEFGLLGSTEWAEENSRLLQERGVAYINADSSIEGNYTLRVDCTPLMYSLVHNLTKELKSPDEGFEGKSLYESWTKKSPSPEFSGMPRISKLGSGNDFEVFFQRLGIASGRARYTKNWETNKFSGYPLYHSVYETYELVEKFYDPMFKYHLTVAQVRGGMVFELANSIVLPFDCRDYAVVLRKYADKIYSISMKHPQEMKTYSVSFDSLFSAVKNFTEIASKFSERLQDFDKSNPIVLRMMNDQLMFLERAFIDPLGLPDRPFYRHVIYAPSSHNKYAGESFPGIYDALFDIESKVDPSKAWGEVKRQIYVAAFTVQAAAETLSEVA
Description: Inhibition of human recombinant glutamate carboxypeptidase 2 by radioenzymatic assay
The IC50 is the concentration at which inhibition is half-maximal. Higher therefore signals a need for much substance. In the case of `N[C@@H](Cn1ccc(=O)[nH]c1=O)C(=O)O` [(S)-WILLARDIINE], the midpoint of inhibition, the IC50, lay at 67 µM.

For `N[C@@H](Cn1oc(=O)[nH]c1=O)C(=O)O` [QUISQUALATE], the 50% inhibitory concentration (IC50) came to 9.5 µM.

Consider `N[C@@H](CCC(=O)O)C(=O)O` [GLUTAMIC ACID], for which inhibition was half-maximal at 428 µM (IC50).

Compound `N[C@@H](COP(=O)(O)O)C(=O)O` [DEXFOSFOSERINE] returned an IC50 of 523 µM.
